From ChEMBL document CHEMBL1201862, “PubChem BioAssay data set” (2004)
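Five compound concentrations were applied to cells in 96-well plates for 48 hours; endpoints were derived by simple linear interpolation of the resulting dose-response curve. Abbreviation: GI50, concentration required for 50% inhibition of growth.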 The source made the active and inactive calls. Cut-off read from the data, not from the text of the source: active = GI50 up to about 1.1 µM and inactive = higher.

Tests used:
Assay in all cases: growth of human tumour cells (NCI), 48 h
HCC 2998 = tested on: HCC 2998
OVCAR-8 = tested on: OVCAR-8
SF-268 = tested on: SF-268
NCI-H226 = tested on: NCI-H226
IGROV-1 = tested on: IGROV-1
PC-3 = tested on: PC-3
NCI-H460 = tested on: NCI-H460
LOX IMVI = tested on: LOX IMVI
ACHN = tested on: ACHN
Hs-578T = tested on: Hs-578T
NCI/ADR-RES = tested on: NCI/ADR-RES
OVCAR-3 = tested on: OVCAR-3
SW-620 = tested on: SW-620
SF-539 = tested on: SF-539
CCRF-CEM = tested on: CCRF-CEM
SF-295 = tested on: SF-295
NCI-H522 = tested on: NCI-H522
HCT-15 = tested on: HCT-15
DU-145 = tested on: DU-145
EKVX = tested on: EKVX
OVCAR-4 = tested on: OVCAR-4
A549 = tested on: A549
SNB-75 = tested on: SNB-75
COLO 205 = tested on: COLO 205
HCT-116 = tested on: HCT-116
RPMI-8226 = tested on: RPMI-8226
OVCAR-5 = tested on: OVCAR-5
CAKI-1 = tested on: CAKI-1
MDA-MB-435 = tested on: MDA-MB-435
SK-MEL-5 = tested on: SK-MEL-5
T47D = tested on: T47D
NCI-H23 = tested on: NCI-H23
KM12 = tested on: KM12
HL-60 = tested on: HL-60
SR = tested on: SR
M14 = tested on: M14
SK-OV-3 = tested on: SK-OV-3
UACC-257 = tested on: UACC-257
SN12C = tested on: SN12C
A498 = tested on: A498
HOP-62 = tested on: HOP-62
MDA-N = tested on: MDA-N
Malme-3M = tested on: Malme-3M
MDA-MB-231 = tested on: MDA-MB-231
MOLT-4 = tested on: MOLT-4
HT-29 = tested on: HT-29
SNB-19 = tested on: SNB-19
UACC-62 = tested on: UACC-62
U-251 = tested on: U-251
MCF7 = tested on: MCF7
BT-549 = tested on: BT-549
TK-10 = tested on: TK-10
SK-MEL-2 = tested on: SK-MEL-2
UO-31 = tested on: UO-31
786-0 = tested on: 786-0
SK-MEL-28 = tested on: SK-MEL-28
HOP-92 = tested on: HOP-92
K562 = tested on: K562
RXF 393 = tested on: RXF 393

`O=C1CC(Sc2nc3ccc(I)cc3c(=O)n2Cc2ccccc2)C(=O)NN1` (stereo not given) was tested, and the GI50 (HCC 2998) was 17.6 µM (inactive), the GI50 (OVCAR-8) was 14.4 µM (inactive) and the GI50 (SF-268) was 15.9 µM (inactive). For the same compound, the GI50 (NCI-H226) was 5.89 µM (inactive), the GI50 (IGROV-1) was 11.8 µM (inactive) and the GI50 (PC-3) was 17 µM (inactive). The GI50 (NCI-H460) was 22.8 µM (inactive), the GI50 (LOX IMVI) was 3.18 µM (inactive) and the GI50 (ACHN) was 16.6 µM (inactive). The GI50 (Hs-578T) was 18.5 µM (inactive), the GI50 (NCI/ADR-RES) was 20.2 µM (inactive) and the GI50 (OVCAR-3) was 16 µM (inactive). The GI50 (SW-620) was 18 µM (inactive), the GI50 (SF-539) was 18.2 µM (inactive) and the GI50 (CCRF-CEM) was 8.28 µM (inactive). For the same compound, the GI50 (SF-295) was 18.2 µM (inactive), the GI50 (NCI-H522) was 1.94 µM (inactive) and the GI50 (HCT-15) was 15.5 µM. For the same compound, the GI50 (DU-145) was 20 µM (inactive), the GI50 (EKVX) was 15.8 µM (inactive) and the GI50 (OVCAR-4) was 17.4 µM (inactive). The GI50 (A549) was 28.4 µM (inactive), the GI50 (SNB-75) was 11.7 µM (inactive) and the GI50 (COLO 205) was 19.1 µM (inactive). For the same compound, the GI50 (HCT-116) was 15.7 µM (inactive), the GI50 (RPMI-8226) was 17 µM (inactive) and the GI50 (OVCAR-5) was 17.9 µM (inactive). The GI50 (CAKI-1) was 2.81 µM (inactive), the GI50 (MDA-MB-435) was 17.7 µM (inactive) and the GI50 (SK-MEL-5) was 16.2 µM (inactive). The GI50 (T47D) was 15.2 µM (inactive), the GI50 (NCI-H23) was 15.7 µM (inactive) and the GI50 (KM12) was 17.2 µM (inactive). For the same compound, the GI50 (HL-60) was 20 µM (inactive), the GI50 (SR) was 2.73 µM (inactive) and the GI50 (M14) was 19.6 µM (inactive). For the same compound, the GI50 (SK-OV-3) was 16 µM (inactive), the GI50 (UACC-257) was 18.3 µM (inactive) and the GI50 (SN12C) was 14.5 µM (inactive). For the same compound, the GI50 (A498) was 12.7 µM (inactive), the GI50 (HOP-62) was 17.4 µM (inactive) and the GI50 (MDA-N) was 18 µM (inactive). For the same compound, the GI50 (Malme-3M) was 18.1 µM (inactive), the GI50 (MDA-MB-231) was 15.6 µM (inactive) and the GI50 (MOLT-4) was 14.3 µM (inactive). For the same compound, the GI50 (HT-29) was 18.6 µM (inactive), the GI50 (SNB-19) was 19.3 µM (inactive) and the GI50 (UACC-62) was 15.3 µM (inactive). For the same compound, the GI50 (U-251) was 15.9 µM (inactive), the GI50 (MCF7) was 15 µM (inactive) and the GI50 (BT-549) was 15.7 µM (inactive). The GI50 (TK-10) was 16.8 µM (inactive), the GI50 (SK-MEL-2) was 17.1 µM (inactive) and the GI50 (UO-31) was 0.55 µM (active). For the same compound, the GI50 (786-0) was 15.1 µM (inactive), the GI50 (SK-MEL-28) was 17.9 µM (inactive) and the GI50 (HOP-92) was 17.7 µM (inactive). For the same compound, the GI50 (K562) was 11.6 µM (inactive).

For `C[C@]12CC[C@@H]3c4ccc(OCC(=O)O)cc4CC[C@H]3[C@@H]1CCC2=O`, the GI50 (OVCAR-8) was > 100 µM (inactive), the GI50 (SF-268) was > 100 µM (inactive) and the GI50 (NCI-H226) was > 100 µM (inactive). For the same compound, the GI50 (IGROV-1) was > 100 µM (inactive), the GI50 (PC-3) was > 100 µM (inactive) and the GI50 (NCI-H460) was > 100 µM (inactive). For the same compound, the GI50 (LOX IMVI) was > 100 µM (inactive), the GI50 (ACHN) was > 100 µM (inactive) and the GI50 (RXF 393) was > 100 µM (inactive). The GI50 (Hs-578T) was > 100 µM (inactive), the GI50 (NCI/ADR-RES) was > 100 µM (inactive) and the GI50 (OVCAR-3) was > 100 µM (inactive). For the same compound, the GI50 (SW-620) was > 100 µM (inactive), the GI50 (SF-539) was > 100 µM (inactive) and the GI50 (CCRF-CEM) was 1.32 µM (inactive). For the same compound, the GI50 (SF-295) was > 100 µM (inactive), the GI50 (NCI-H522) was > 100 µM (inactive) and the GI50 (HCT-15) was over 100 µM. The GI50 (DU-145) was > 100 µM (inactive), the GI50 (EKVX) was > 100 µM (inactive) and the GI50 (OVCAR-4) was > 100 µM (inactive). For the same compound, the GI50 (A549) was > 100 µM (inactive), the GI50 (SNB-75) was > 100 µM (inactive) and the GI50 (COLO 205) was > 100 µM (inactive). For the same compound, the GI50 (HCT-116) was > 100 µM (inactive), the GI50 (RPMI-8226) was > 100 µM (inactive) and the GI50 (OVCAR-5) was > 100 µM (inactive). The GI50 (CAKI-1) was > 100 µM (inactive), the GI50 (MDA-MB-435) was > 100 µM (inactive) and the GI50 (SK-MEL-5) was > 100 µM (inactive). The GI50 (T47D) was > 100 µM (inactive), the GI50 (NCI-H23) was > 100 µM (inactive) and the GI50 (KM12) was > 100 µM (inactive). For the same compound, the GI50 (HL-60) was 0.13 µM (active), the GI50 (SR) was > 100 µM (inactive) and the GI50 (M14) was > 100 µM (inactive). The GI50 (SK-OV-3) was > 100 µM (inactive), the GI50 (UACC-257) was > 100 µM (inactive) and the GI50 (SN12C) was > 100 µM (inactive). The GI50 (A498) was > 100 µM (inactive), the GI50 (HOP-62) was > 100 µM (inactive) and the GI50 (MDA-N) was > 100 µM (inactive). The GI50 (Malme-3M) was > 100 µM (inactive), the GI50 (MDA-MB-231) was > 100 µM (inactive) and the GI50 (MOLT-4) was 15.1 µM (inactive). For the same compound, the GI50 (HT-29) was > 100 µM (inactive), the GI50 (SNB-19) was > 100 µM (inactive) and the GI50 (UACC-62) was > 100 µM (inactive). The GI50 (U-251) was > 100 µM (inactive), the GI50 (MCF7) was > 100 µM (inactive) and the GI50 (BT-549) was > 100 µM (inactive). For the same compound, the GI50 (TK-10) was > 100 µM (inactive), the GI50 (SK-MEL-2) was > 100 µM (inactive) and the GI50 (UO-31) was > 100 µM (inactive). The GI50 (786-0) was > 100 µM (inactive), the GI50 (SK-MEL-28) was > 100 µM (inactive) and the GI50 (HOP-92) was > 100 µM (inactive).
